Assays:
[1] = target: T1, Recombinant STAT3 protein (STAT3(G127-I722)) (Homo sapiens, UniProt P40763); assay: STAT3 Fluorescence Polarization (FP) Assay; format: binding; conditions: STAT3(G127-I722) 25 nM, probe 5-FAM-GpYLPQTV-NH2 2 nM, 45-minute incubation
T1 construct: Recombinant STAT3 protein (STAT3(G127-I722))
Description: STAT3 Fluorescence Polarization (FP) Assay
An FP assay was developed to determine IC50 values for test substances. Recombinant STAT3 protein (STAT3(G127-I722)) at 25 nM was combined with a fluorescently labeled, phosphotyrosine peptide probe (5-FAM-GpYLPQTV-NH2) at 2 nM in FP buffer (10 mM HEPES pH 7.4, 50 mM NaCl, 1 mM EDTA, 0.05% Tween 20.2 mM DTT). 50 μL of STAT3-probe mixture was added to serial diluted compounds in black, 96-well plates (Greiner BioOne 655076) to a final concentration of 1% DMSO. Reaction components were mixed, and FP was measured after 45-minute incubation at room temperature using a Tecan Spark multimode plate reader. FP signal (mP) was plotted against the log concentration of the test substances and IC50 values were calculated by nonlinear regression analysis using GraphPad Prism software. For STAT3 FP assay, A=≤100 nM; B=>100-1000 nM; C=>1-10 μM; and D=>10 μM.

[2] = target: T2, Recombinant STAT6 protein (STAT6(W123-T658)) (Homo sapiens, UniProt P42226); assay: STAT6 Fluorescence Polarization (FP) Assay; format: binding; conditions: STAT6(W123-T658) 250 nM, probe 5-FAM-ApYKPFQDLI-NH2 2 nM, 45-minute incubation
T2 construct: Recombinant STAT6 protein (STAT6(W123-T658))
T2 sequence (P42226 123-658): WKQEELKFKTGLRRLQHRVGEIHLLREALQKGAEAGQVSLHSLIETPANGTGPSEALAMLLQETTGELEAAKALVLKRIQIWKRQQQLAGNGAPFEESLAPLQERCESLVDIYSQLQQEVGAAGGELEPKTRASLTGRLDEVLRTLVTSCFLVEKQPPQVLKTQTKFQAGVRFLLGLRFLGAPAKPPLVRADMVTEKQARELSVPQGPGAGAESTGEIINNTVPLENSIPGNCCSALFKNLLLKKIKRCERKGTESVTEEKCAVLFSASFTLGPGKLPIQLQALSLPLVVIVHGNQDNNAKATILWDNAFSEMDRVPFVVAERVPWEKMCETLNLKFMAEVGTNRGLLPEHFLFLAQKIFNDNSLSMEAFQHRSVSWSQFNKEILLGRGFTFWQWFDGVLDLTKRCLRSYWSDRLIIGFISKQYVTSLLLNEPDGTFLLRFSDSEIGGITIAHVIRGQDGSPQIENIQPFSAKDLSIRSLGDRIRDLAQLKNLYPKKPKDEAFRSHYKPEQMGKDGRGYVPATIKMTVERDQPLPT
Description: STAT6 Fluorescence Polarization (FP) Assay
An FP assay was developed to determine IC50 values for test substances. Recombinant STAT6 protein (STAT6(W123-T658)) at 250 nM was combined with a fluorescently labeled, phosphotyrosine peptide probe (5-FAM-ApYKPFQDLI-NH2) at 2 nM in FP buffer (10 mM HEPES pH 7.4, 50 mM NaCl, 1 mM EDTA, 0.05% Tween 20.2 mM DTT). 50 μL of STAT6-probe mixture was added to serial diluted compounds in black, 96-well plates (Greiner BioOne 655076) to a final concentration of 1% DMSO. Reaction components were mixed, and FP was measured after 45-minute incubation at room temperature using a Tecan Spark multimode plate reader. FP signal (mP) was plotted against the log concentration of the test substances and IC50 values were calculated by nonlinear regression analysis using GraphPad Prism software. For STAT6 FP assay, A=≤300 nM; B=>300-3000 nM; C=>3-30 μM; and D=>30 μM.

T1 sequence (P40763 127-722): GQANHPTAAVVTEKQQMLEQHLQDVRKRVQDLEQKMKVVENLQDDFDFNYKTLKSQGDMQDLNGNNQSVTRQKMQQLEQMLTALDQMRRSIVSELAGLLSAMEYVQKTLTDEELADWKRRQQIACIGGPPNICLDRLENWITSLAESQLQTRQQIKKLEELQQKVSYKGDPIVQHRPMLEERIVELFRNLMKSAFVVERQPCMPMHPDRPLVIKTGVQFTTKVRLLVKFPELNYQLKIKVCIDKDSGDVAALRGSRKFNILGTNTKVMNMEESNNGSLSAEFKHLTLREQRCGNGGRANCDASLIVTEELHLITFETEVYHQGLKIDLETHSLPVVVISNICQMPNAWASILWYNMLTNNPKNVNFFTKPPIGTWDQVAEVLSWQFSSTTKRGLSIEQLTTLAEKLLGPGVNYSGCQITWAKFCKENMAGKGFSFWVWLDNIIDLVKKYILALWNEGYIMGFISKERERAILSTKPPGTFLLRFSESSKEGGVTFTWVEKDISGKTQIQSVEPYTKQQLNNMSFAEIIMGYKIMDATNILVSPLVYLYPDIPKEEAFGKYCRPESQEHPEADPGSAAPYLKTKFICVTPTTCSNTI

IC50 [1] [nM]	IC50 [2] [nM]	Structure (SMILES)
1000 to 10000	300 to 3000	COc1cc(C2CN(C(=O)[C@@H]3CC[C@@H]4CCN(C(C)=O)C[C@H](NC(=O)c5cc6cc(C(F)(F)P(=O)(O)O)ccc6s5)C(=O)N43)C[C@@H]2C#N)ccn1 (relative stereo) [Compound 148, ((2-(((5S,8S,10aR)-3-acetyl-8-((rel-trans)-3-cyano-4-(2-methoxypyridin-4-yl)pyrrolidine-1-carbonyl)-6-oxodecahydropyrrolo[1,2-a][1,5]diazocin-5-yl)carbamoyl)benzo[b]thiophen-5-yl)difluoromethyl)phosphonic acid]
1000 to 10000	≤ 300	COc1cccc([C@@H]2CN(C(=O)[C@@H]3CC[C@@H]4CCN(C(C)=O)C[C@H](NC(=O)c5cc6cc(C(F)(F)P(=O)(O)O)ccc6s5)C(=O)N43)C[C@H]2C#N)c1 (relative stereo) [Compound 149, ((2-(((5S,8S,10aR)-3-acetyl-8-((rel-trans)-3-cyano-4-(3-methoxyphenyl)pyrrolidine-1-carbonyl)-6-oxodecahydropyrrolo[1,2-a][1,5]diazocin-5-yl)carbamoyl)benzo[b]thiophen-5-yl)difluoromethyl)phosphonic acid]
100 to 1000	≤ 300	CC(=O)N1CC[C@H]2CC[C@@H](C(=O)N3C[C@@H](C#N)[C@H](c4cccnc4)C3)N2C(=O)[C@@H](NC(=O)c2cc3cc(C(F)(F)P(=O)(O)O)ccc3s2)C1 (relative stereo) [Compound 150, ((2-(((5S,8S,10aR)-3-acetyl-8-((rel-trans)-3-cyano-4-(pyridin-3-yl)pyrrolidine-1-carbonyl)-6-oxodecahydropyrrolo[1,2-a][1,5]diazocin-5-yl)carbamoyl)benzo[b]thiophen-5-yl)difluoromethyl)phosphonic acid]
1000 to 10000	300 to 3000	CC(=O)N1CC[C@H]2CC[C@@H](C(=O)N3C[C@@H](C#N)[C@H](C4CCCCC4)C3)N2C(=O)[C@@H](NC(=O)c2cc3cc(C(F)(F)P(=O)(O)O)ccc3s2)C1 (relative stereo) [Compound 151, ((2-(((5S,8S,10aR)-3-acetyl-8-((rel-trans)-3-cyano-4-cyclohexylpyrrolidine-1-carbonyl)-6-oxodecahydropyrrolo[1,2-a][1,5]diazocin-5-yl)carbamoyl)benzo[b]thiophen-5-yl)difluoromethyl)phosphonic acid]
1000 to 10000	≤ 300	CC(=O)N1CC[C@H]2CC[C@@H](C(=O)N3C[C@@H](C#N)[C@](C)(c4ccccc4)C3)N2C(=O)[C@@H](NC(=O)c2cc3cc(C(F)(F)P(=O)(O)O)ccc3s2)C1 (relative stereo) [Compound 152, ((2-(((5S,8S,10aR)-3-acetyl-8-((rel-trans)-4-cyano-3-methyl-3-phenylpyrrolidine-1-carbonyl)-6-oxodecahydropyrrolo[1,2-a][1,5]diazocin-5-yl)carbamoyl)benzo[b]thiophen-5-yl)difluoromethyl)phosphonic acid]
1000 to 10000	300 to 3000	CC(=O)N1CC[C@H]2CC[C@@H](C(=O)N3C[C@@H](C#N)C[C@H](c4ccccc4)C3)N2C(=O)[C@@H](NC(=O)c2cc3cc(C(F)(F)P(=O)(O)O)ccc3s2)C1 (relative stereo) [Compound 153, ((2-(((5S,8S,10aR)-3-acetyl-8-((rel-trans)-3-cyano-5-phenylpiperidine-1-carbonyl)-6-oxodecahydropyrrolo[1,2-a][1,5]diazocin-5-yl)carbamoyl)benzo[b]thiophen-5-yl)difluoromethyl)phosphonic acid]
1000 to 10000	300 to 3000	CC(=O)N1CC[C@H]2CC[C@@H](C(=O)N3CC[C@@H](c4ccccc4)[C@H](C#N)C3)N2C(=O)[C@@H](NC(=O)c2cc3cc(C(F)(F)P(=O)(O)O)ccc3s2)C1 (relative stereo) [Compound 154, ((2-(((5S,8S,10aR)-3-acetyl-8-((rel-trans)-3-cyano-4-phenylpiperidine-1-carbonyl)-6-oxodecahydropyrrolo[1,2-a][1,5]diazocin-5-yl)carbamoyl)benzo[b]thiophen-5-yl)difluoromethyl)phosphonic acid]
1000 to 10000	≤ 300	CC(=O)N1CC[C@H]2CC[C@@H](C(=O)N3C[C@H](c4ccccc4)[C@@H](C#N)C3)N2C(=O)[C@@H](NC(=O)c2ccc3ccc(C(F)(F)P(=O)(O)O)cc3c2)C1 (relative stereo) [Compound 203, ((7-(((5S,8S,10aR)-3-acetyl-8-(rel-trans)-3-cyano-4-phenylpyrrolidine-1-carbonyl)-6-oxodecahydropyrrolo[1,2-a][1,5]diazocin-5-yl)carbamoyl)naphthalen-2-yl)difluoromethyl)phosphonic acid]
100 to 1000	300 to 3000	CC(=O)N1CC[C@H]2CC[C@@H](C(=O)N3C[C@@H](C#N)[C@@H]3c3ccccc3)N2C(=O)[C@@H](NC(=O)c2cc3cc(C(F)(F)P(=O)(O)O)ccc3s2)C1 (relative stereo) [Compound 204, ((2-(((5S,8S,10aR)-3-acetyl-8-((rel-trans)-3-cyano-2-phenylazetidine-1-carbonyl)-6-oxodecahydropyrrolo[1,2-a][1,5]diazocin-5-yl)carbamoyl)benzo[b]thiophen-5-yl)difluoromethyl)phosphonic acid]
1000 to 10000	300 to 3000	CC(=O)N1CC[C@H]2CC[C@@H](C(=O)N3C[C@H](C#N)C[C@@H]3c3ccccc3)N2C(=O)[C@@H](NC(=O)c2cc3cc(C(F)(F)P(=O)(O)O)ccc3s2)C1 (relative stereo) [Compound 205, ((2-(((5S,8S,10aR)-3-acetyl-8-((rel-cis)-4-cyano-2-phenylpyrrolidine-1-carbonyl)-6-oxodecahydropyrrolo[1,2-a][1,5]diazocin-5-yl)carbamoyl)benzo[b]thiophen-5-yl)difluoromethyl)phosphonic acid]
1000 to 10000	300 to 3000	CC(=O)N1CC[C@H]2CC[C@@H](C(=O)N3C[C@H](C#N)C[C@H]3c3ccccc3)N2C(=O)[C@@H](NC(=O)c2cc3cc(C(F)(F)P(=O)(O)O)ccc3s2)C1 (relative stereo) [Compound 206, ((2-(((5S,8S,10aR)-3-acetyl-8-((rel-trans)-4-cyano-2-phenylpyrrolidine-1-carbonyl)-6-oxodecahydropyrrolo[1,2-a][1,5]diazocin-5-yl)carbamoyl)benzo[b]thiophen-5-yl)difluoromethyl)phosphonic acid]
1000 to 10000	300 to 3000	CC(=O)N1CC[C@H]2CC[C@@H](C(=O)N3CC[C@H](C#N)[C@H]3c3ccccc3)N2C(=O)[C@@H](NC(=O)c2cc3cc(C(F)(F)P(=O)(O)O)ccc3s2)C1 (relative stereo) [Compound 207, ((2-(((5S,8S,10aR)-3-acetyl-8-((rel-trans)-3-cyano-2-phenylpyrrolidine-1-carbonyl)-6-oxodecahydropyrrolo[1,2-a][1,5]diazocin-5-yl)carbamoyl)benzo[b]thiophen-5-yl)difluoromethyl)phosphonic acid]
1000 to 10000	300 to 3000	N#C[C@H]1CN(C(=O)[C@@H]2CC[C@@H]3CN(C(c4ccccc4)c4ccccc4)CC[C@H](NC(=O)c4ccc5ccc(C(F)(F)P(=O)(O)O)cc5c4)C(=O)N32)C[C@@H]1c1ccccc1 (relative stereo) [Compound 209, ((7-(((5S,8S,10aR)-2-benzhydryl-8-((rel-trans)-3-cyano-4-phenylpyrrolidine-1-carbonyl)-6-oxodecahydropyrrolo[1,2-a][1,4]diazocin-5-yl)carbamoyl)naphthalen-2-yl)difluoromethyl)phosphonic acid]
